Test results from EP0408749A1, “DERIVATIVES OF 3,18-DIHYDROXY-9,13-EPOXYLABDANE, METHOD OF OBTAINING THEM AND A HEMOSTATIC PHARMACEUTICAL PREPARATION BASED THEREON” (TASHKENTSKY GOSUDARSTVENNY UNIVERSITET IMENI V.I. LENINA, priority 1988, dated 1990).
Structures can show the parent of a compound that is named as a salt.

How the values were obtained:
[1] = system: blood coagulation; assay: Thromboelastogram in dogs after administration of the compound; type: in vivo; conditions: dog, 25 mg/kg; for Time of reaction of blood coagulation, R / Time of the clot formation K: arithmetic mean M; for Time of reaction of blood coagulation, R: 10 animals, initial 23.0; for Time of the clot formation K: initial 20.0
Experimental: (§1) The pharmacological studies of the hemostatic activity of the compounds according to the present invention was conducted in vivo and in vitro with the use of biochemical tests and by means of a thromboelasto- graph.
(§2) The blood for examination was taken from an opened dog's thigh vein prior to administration of the compound and 10, 30, 60, 90 and 120 min thereafter. For the cuvette of the thromboelasto- graph the blood was taken in the amount of 0.36 ml, while for biochemical tests -up to 10 ml (as the con- servant use was made of a 1.34% solution of sodium oxalate which was added in the ratio of 1:9).
The next series of experiments - administration of the compound according to the present invention in the dose of 25 mg/kg of the animals' bodymass.

[2] = system: blood coagulation; assay: Thromboelastogram in vitro; type: biochemical; conditions: for Time of the reaction of blood coagulation, R / Coagulation index, C: in vitro, experiment (O)
Experimental: as §1
The effect of the compound according to the present invention , viz. 3,1,18-trihydroxy-9,13-epofil- abdan-15-ic acid sodium salt trihydrate on hemostasis was studied in vitro with the use of a thromboelastogram.

[3] = system: blood coagulation system; assay: Biochemical tests of the blood coagulation system in dogs, intravenous; type: in vivo; conditions: dog, 25 mg/kg intravenously; for Time of blood coagulation / Tolerance of the plasma to heparin / Trombin time / Time of plasma recalcification: mean M; for Time of blood coagulation: 10 animals, initial 5.1; for Tolerance of the plasma to heparin: initial 6.8; for Trombin time: initial 17.0; for Time of plasma recalcification: initial 117.0
Experimental: as §1, §2
In another series of experiments the effect of the compound according to the present invention was studied in biochemical tests.

[4] = system: local blood hemorrhage; assay: Local blood hemorrhage, local application; type: in vivo; conditions: local effect, concentration of 0.5%
Source text: The study of the effect provided by the compound according to the present invention on the local blood hemorrhage has shown that the local effect of the compound in tne concentration of 0.5% lowers the flood loss by 83% and the hemorrhage duration is reduced by 60%.

[5] = system: thrombocytes; assay: Effect on thrombocytes
Source text: Furthermore, the compound according to the present invention increases the number of thrombocytes and activates adhesion and aggregation of thrombocytes.

[6] = system: heparin; assay: Effect on heparin
[7] = system: white non-descipt mice; assay: Acute toxicity, intraperitoneal; type: in vivo
Experimental: The compound according to the present invention, i.e. 3,16,18-trihydroxy-3,13-epoxylabdan-15-ic acid sodium salt trihydrate was tested for an acute toxicity.

[8] = system: rats, dogs; conditions: in vivo
[9] = system: blood coagulation; assay: Thromboelastogram in dogs after administration of the compound; type: in vivo; conditions: 10 mg/kg
[10] = system: blood coagulation; assay: Blood coagulation in dogs after hypodermal administration of a 20% oily solution; type: in vivo; conditions: 50 mg/kg hypodermally; for Time of blood coagulation / Fibrinolytic activity of blood / Time of plasma recalcification / Tolerance of plasma to heparin / Fibrinogen: mean M; for Time of blood coagulation: prior 318.0; for Fibrinolytic activity of blood: prior 41.0; for Time of plasma recalcification: prior 106.0; for Tolerance of plasma to heparin: prior 214.0; for Fibrinogen: prior 435.0
Experimental: as §1
[…] For the cuvette of the thromboelasto- graph the blood was taken in the amount of 0.36 ml, while for biochemical tests -up to 10 ml (as the con- servant use was made of a 1.34% solution of sodium oxalate which was added in the ratio of 1:9).
The compound according to the invention , viz. ? 3,18-dihydroxy-9,13-epoxylabdan-15-16-olide was administered to dogs (a group of 5 animals) in the dose of 50 mg/kg of the animal's bodymass hypodermally as a 20% oily solution.

[11] = system: mice; assay: LD50, subcutaneous 20% oily solution; type: in vivo; conditions: subcutaneously (hypodermal)
Experimental: The LD50 was determined on mice (a group of 30 animals with. a bodymass of 20-21 g). The mice were administered with 3,18-dihydroxy-9,13-epoxylabdan-15,16-olide subcutaneously (a 20% oily solution). In the case of this manner of administration (i.e. hypodermal one) the LD50 was equal to more than 2,000 mg/kg of the animal's bodymass.

[12] = system: hemostatic effect; conditions: prior art statement; cited from earlier work
[13] = system: blood coagulation system; assay: Comparative clinical study of hemostatic effect against dicynone; type: in vivo; conditions: twenty post-operation patients, 20 minutes after introduction, p < 0.05
Experimental: The pharmaceutical preparation according to the present invention and dicynone were subjected to a comparative study for their hemostatic effect. Twenty post-operation patients (cardiorevivification department). The preparations were administered in the amount of […]. For the determination of the hemostatic effect determined by the functional state of the blood coagulation system the following characteristics were studied: thromboelastogram, the time of recalcification of citrate plasma and the plasma tolerance towards heparin. 20 minutes after the introduction of dicynone the parameter of the time of reaction of the rate of formation of thromboplastin was decreased by 32%, after administration of the preparation according to the present invention - by 75%, the time of coagulation was reduced, respectively, by 2'1 and 43%, t,ie time of recalcification of plasma decreased by 43 and 61% respectively, tolerance of plasma to heparin increased by 36 and 52%, respectively (at an error of p < 0.05).

[14] = system: hemostatic effect; conditions: after administration to patients; cited from earlier work
[15] = 30 minutes after administration
[16] = 60 minutes after administration
[17] = 90 minutes after administration
[18] = 120 minutes after administration

## 3,16,18-trihydroxy-9,13-epoxylabdan-15-ic acid sodium salt trihydrate
[1]
  coagulation time K is reduced by: 40-55%
  factor C (coagulation index) increased by: 71-133%
[1]; column 2 (30 min by the note to Table 3)
  Time of reaction of blood coagulation, R: 10.0 mm
[1]; column 3 (60 min by the note to Table 3)
  Time of reaction of blood coagulation, R: 12.0 mm
[1]; column 4 (90 min by the note to Table 3)
  Time of reaction of blood coagulation, R: 9.0 mm
[1]; column 5 (120 min by the note to Table 3)
  Time of reaction of blood coagulation, R: 11.0 mm
[1]; fifth value column (120 min by the note to Table 3)
  Time of the clot formation K: 9.0 mm
[1]; fourth value column (90 min by the note to Table 3)
  Time of the clot formation K: 10.0 mm
[1]; second value column (30 min by the note to Table 3)
  Time of the clot formation K: 12.0 mm
[1]; third value column (60 min by the note to Table 3)
  Time of the clot formation K: 11.0 mm
[2]; 0.01 mg, control 26.0
  Time of the reaction of blood coagulation, R: 7.0 mm
[2]; 0.1 mg, control 11.0
  Time of the reaction of blood coagulation, R: 8.0 mm
[2]; 0.1 mg, control 19.6
  Coagulation index, C: 20.8 mm
[2]; 1 mg, control 23.0
  Coagulation index, C: 8.0 mm
[2]; 5 mg, control 18.0
  Time of the reaction of blood coagulation, R: 32.0 mm
[2]; 5 mg, control 19.0
  Coagulation index, C: 3.4 mm
[2]; in vitro, 0.01, 0.1, 0.2 and 1.0 mg per 0.26 ml of blood
  parameter R (the time of reaction of blood coagulation): substantially reduces
[3]
  blood coagulation time is shortened by: 35-40%
  thrombin time is reduced by: 30-35%
  time of plasma recalcification shortened by: 33-39%
  tolerance of plasma to heparin is increased by: 30-40%
[3]; [15]
  Time of blood coagulation: 3.9 min
  Tolerance of the plasma to heparin: 4,8 min
  Trombin time: 12.0 s
  Time of plasma recalcification: 78.0 s
[3]; [16]
  Time of blood coagulation: 3.7 min
  Tolerance of the plasma to heparin: 4.6 min
  Trombin time: 12.0 s
  Time of plasma recalcification: 79.0 s
[3]; [17]
  Time of blood coagulation: 3.0 min
  Tolerance of the plasma to heparin: 4.3 min
  Trombin time: 11.0 s
  Time of plasma recalcification: 74.0 s
[3]; [18]
  Time of blood coagulation: 3.4 min
  Tolerance of the plasma to heparin: 4.1 min
  Trombin time: 11.0 s
  Time of plasma recalcification: 71.0 s
[4]
  hemorrhage duration is reduced by: 60%
  lowers the flood loss by: 83%
[5]
  adhesion and aggregation of thrombocytes: activates
  number of thrombocytes: increases
[6]
  effect on heparin: did not prevent the effect of heparin but weakened it
[7]; intraperitoneal administration
  LD50: over 2,000 mg/kg of the animal's bodymass
[7]; intraperitoneal, 1,000 and 2,000 mg/kg
  death of the animals: no death
[8]
  local irritation effect: neither provided any local irritation effect
[9]
  process of blood coagulation: promoted

## 3,18-dihydroxy-9,13-epoxylabdan-15,16-olide
[10]; 20% oily solution
  blood coagulation time decreases by: 51%
  time of recalcification decreases by: 32%
  tolerance of the plasma to heparin was increased by: 37%
[10]; 20% oily solution, 60 min after administration
  Time of blood coagulation: 269.0 s
[10]; 20% oily solution, 120 min after administration
  Time of blood coagulation: 218.0 s
[10]; 20% oily solution, 180 min after administration
  Time of blood coagulation: 159.0 s
[10]; 60 min after administration
  Fibrinolytic activity of blood: 53.0%
  Time of plasma recalcification: 102.0 s
  Tolerance of plasma to heparin: 192.0 s
  Fibrinogen: 387.0 mg%
[10]; 120 min after administration
  Fibrinolytic activity of blood: 54.0%
  Time of plasma recalcification: 84.0 s
  Tolerance of plasma to heparin: 138.0 s
  Fibrinogen: 361.0 mg%
[10]; 180 min after administration
  Fibrinolytic activity of blood: 43.0%
  Time of plasma recalcification: 72.0 s
  Tolerance of plasma to heparin: 135.0 s
  Fibrinogen: 293.0 mg%
[11]
  LD50: more than 2,000 mg/kg of the animal's bodymass

## 3, 15, 16, 18-tetrahydroxy-9,13-epoxylabdane
[12]
  hemostatic effect: weak

## O=S(=O)(O)c1cc(O)ccc1O [dicynone, 2,5-dihydroxybenzenesulphonate-j-diethylammonium salt]
[13]
  time of recalcification of plasma decreased by: 43%
  tolerance of plasma to heparin increased by: 36%
[13]; amount of 75 g as printed
  time of reaction of the rate of formation of thromboplastin decreased by: 32%

## CC1(S(=O)(=O)[O-])CC(=O)c2ccccc2C1=O.[Na+] (stereo not shown) [sodium 2,3-dihydro-2-methyl-1,4-naphthoquinone-2-sulphonate]
[14]
  hemostatic effect is noted within: 12 to 18 h
